A short description of data set [1]: in vitro drug elution in PBS from platinum-coated stent. The class given is physicochemical. Particulars: 252 μg on platinum-plated anchoring layer stent, by day 34. An excerpt:
FIG. 7 is an elution profile in PBS of the drug Biolimus A-9 from the stent of the invention as measured by the total amount of drug released in μg over cumulative time in hours.
It will be appreciated that the actual rate of drug release in vivo will be much greater, e.g., the bulk of the drug released will be released within the first few days following implantation, due to the greater hydrophobicity of the cell-membrane environment in vivo. However, the in vitro release in a purely aqueous medium provides a useful standard for formulating the drug coating, to achieve an effective drug release rate in vivo and also to achieve, a desired drug-layer cohesiveness.

Data set [2] in a line: physchem. The source says: The coating may also include binders or small molecules designed to optimize the tissue solubility of the drug coating, to produce a desired cohesiveness in the drug coating, and a desired drug release rate in the implanted stent.
In data set [3] the test system is restenosis in porcine coronary arteries. In words: swine restenosis animal model, stent implantation. It counts as in vivo. Particulars: 28 days after implantation, platinum anchoring layer stent with vs without drug coating. The source says:
Briefly, studies conducted in support of the present invention compared the extent of restenosis at 28 days following stent implantation, in metal stents having an electroplated platinum anchoring layer, with or without a drug coating of Biolimus A-9.

For data set [4] the following is noted: cited from earlier work.

Results on 5 compounds are retold here after US8252047B2, “Drug-delivery endovascular stent and method for treating restenosis” (Biosensors International Group, Ltd., priority 2004, dated 2012).

What is called chromatographic logP is a lipophilicity value derived from retention on a column. A lower chromatographic logP goes with a more hydrophilic compound.

For `CCOCCO[C@@H]1CC[C@@H](C[C@@H](C)[C@@H]2CC(=O)[C@H](C)/C=C(\C)[C@@H](O)[C@@H](OC)C(=O)[C@H](C)C[C@H](C)/C=C/C=C/C=C(\C)[C@@H](OC)C[C@@H]3CC[C@@H](C)[C@@](O)(O3)C(=O)C(=O)N3CCCC[C@H]3C(=O)O2)C[C@H]1OC` [Biolimus A-9], the “fraction of drug eluted from the stent” value in data set [1] is recorded as “about one-third”. Further, the “log P (log partition coefficient between octanol and water)” value (“log P” below) in data set [2] amounted to 7.63. For the same compound, in data set [3], the extent of restenosis entry is on record as “significantly reduced the extent of restenosis”.

Regarding `CO[C@H]1C[C@@H]2CC[C@@H](C)[C@@](O)(O2)C(=O)C(=O)N2CCCC[C@H]2C(=O)O[C@H]([C@H](C)C[C@@H]2CC[C@@H](OCCO)[C@H](OC)C2)CC(=O)[C@H](C)/C=C(\C)[C@@H](O)[C@@H](OC)C(=O)[C@H](C)C[C@H](C)/C=C/C=C/C=C/1C` [everolimus], the “log P” value in data set [2] is listed as 6.70.

In data set [2], `CC(=O)O[C@H]1C(=O)[C@@]2(C)[C@H]([C@H](OC(=O)c3ccccc3)[C@]3(O)C[C@H](OC(=O)[C@H](O)[C@@H](NC(=O)c4ccccc4)c4ccccc4)C(C)=C1C3(C)C)[C@]1(OC(C)=O)CO[C@@H]1C[C@@H]2O` [paclitaxel] returned a chromatographic logP of 4.68.

For `CCc1ccc(CCOc2ccc(CC3SC(=O)NC3=O)cc2)nc1` (stereo not drawn) [pioglitazone], the solubility in acetone result in data set [4] (acetone) is recorded as “slightly soluble”. Further, the solubility in ethanol result in data set [4] (ethanol) is “slightly soluble”. Moreover, the solubility in water result in data set [4] (water) is reported as “insoluble”.

With `CO[C@H]1C[C@@H]2CC[C@@H](C)[C@@](O)(O2)C(=O)C(=O)N2CCCC[C@H]2C(=O)O[C@H]([C@H](C)C[C@@H]2CC[C@@H](O)[C@H](OC)C2)CC(=O)[C@H](C)/C=C(\C)[C@@H](O)[C@@H](OC)C(=O)[C@H](C)C[C@H](C)/C=C/C=C/C=C/1C` [rapamycin], in data set [2] (modified HPLC method (Lombardo et al.)), the “log P” value was found to be 6.51.
